In patent US11040047B2, “Prodrugs of nucleoside phosphonates” (Katholieke Universiteit Leuven, priority 2017, dated 2021):
Read-outs that look alike come from different tables or passages of the source.

Tests used:
HEL cells [1] = assay: Cytotoxicity, minimum cytotoxic concentration (cell morphology) in HEL cells; details: minimum concentration causing microscopically detectable alteration of cell morphology
[2] = tested on: varicella-zoster virus (VZV) strain Oka; assay: Inhibition of plaque formation, VZV TK+ Oka, in HEL fibroblasts; assay type: cell-based; details: Human alphaherpesvirus 3, HEL, read-out: Antiviral activity EC50 VZV TK+ strain (OKA)
TK− VZV strain 07-1 = assay: microbe, parasite or virus in culture; assay type: cell-based, varicella-zoster virus; details: Human alphaherpesvirus 3, HEL, read-out: Antiviral activity EC50 VZV TK− strain
[3] = tested on: Vaccinia virus (strain Lederle, ATCC VR-118); assay: microbe, parasite or virus in culture; assay type: cell-based; details: Orthopoxvirus vaccinia, HEL 299, 96 h, read-out: Antiviral activity EC50 Vaccinia virus
HEL 299 cells = details: human
in vitro = details: human
HEL cells [4] = assay: Cytostatic activity, inhibition of HEL cell growth (CC50); details: read-out: Cytotoxicity HEL cells CC50, concentration reducing cell viability/proliferation by 50%, 3 days
[5] = tested on: human cytomegalovirus (HCMV) strain AD-169; assay: Inhibition of virus-induced cytopathicity, HCMV AD-169, in HEL fibroblasts; assay type: cell-based; details: read-out: Antiviral activity EC50 HCMV AD-169 strain
[6] = tested on: human cytomegalovirus (HCMV) strain Davis; assay: Inhibition of virus-induced cytopathicity, HCMV Davis, in HEL fibroblasts; assay type: cell-based; details: read-out: Antiviral activity EC50 HCMV Davis strain
[7] = tested on: human adeno virus-2 (clinical isolate C251085); assay: Inhibition of virus-induced cytopathicity, human adeno virus-2, in HEL 299 cells; assay type: cell-based; details: Human mastadenovirus C, 240 h, 10 days, cytopathicity reduced by 50%, read-out: Antiviral activity EC50 Adenovirus 2
[8] = Human betaherpesvirus 5, AD169, HEL cells, reduction of virus-induced cytopathicity by 50%
[9] = Human betaherpesvirus 5, AD169, HEL

Row | Compound | Cytotoxicity HEL cells MCC (HEL cells [1]; Table 1) | Cytotoxicity HEL cells MCC (HEL cells [1]; Table 2) | EC50 [2] | EC50 (TK− VZV strain 07-1) | EC50 [3] | Cytotoxicity MCC (HEL 299 cells) | CC50 at 3 days (in vitro) | CC50 (HEL cells [4]; Table 1) | EC50 [5, 8] | EC50 ([6]; Human betaherpesvirus 5, HEL cells, reduction of virus-induced cytopathicity by 50%) | EC50 [7] | CC50 at 3 days (in vitro; HEL cells) | EC50 [5, 9] | EC50 ([6]; Human betaherpesvirus 5, HEL) | CC50 (HEL cells [4]; Table 2)
1 | Nc1nc2c(ncn2COCCO)c(=O)[nH]1 [Acyclovir, reference compound] | >88.8 | >88.8 |  |  |  |  |  |  |  |  |  |  |  |  | 
2 | O=c1[nH]c(=O)n([C@H]2C[C@H](O)[C@@H](CO)O2)cc1/C=C/Br [Brivudin, reference compound] | >30.0 | >30.0 | 53 nM | 22100 nM | 5800 nM | >250 | > 300000 nM | > 300000 nM |  |  |  |  |  |  | 
3 | Nc1ccn(C[C@@H](CO)OCP(=O)(O)O)c(=O)n1 [Cidofovir, reference compound] | >71.6 | >71.6 |  |  | 50000 nM | >250 |  | > 358000 nM | 1600 nM | 840 nM | 10000 nM | > 358000 nM |  |  | 
4 | CCCCCOC(=O)C[C@H](NP1(=O)CO[C@@H](Cn2cnc3c(N)ncnc32)CO1)C(=O)OCCCCC (stereo partly drawn) [Example 8, Diamyl {(5S)-5-[(6-amino-9H-purin-9-yl)methyl]-2-oxido-1,4,2-dioxaphosphinan-2-yl}-L-aspartate] | 13.6 | 13.6 | 1.4 nM | 1.5 nM | 77 nM | ≥20 | 2730 nM |  |  |  | 183 nM |  | 27 nM | 9 nM | 
5 | CCCCCOC(=O)C[C@H](NP1(=O)CO[C@H](Cn2cnc3c(N)ncnc32)CO1)C(=O)OCCCCC (stereo partly drawn) [Example 9, Diamyl {(5R)-5-[(6-amino-9H-purin-9-yl)methyl]-2-oxido-1,4,2-dioxaphosphinan-2-yl}-L-aspartate] | >18.5 | >18.5 | 33 nM | 62 nM |  |  | 11600 nM |  |  |  |  |  | 4390 nM | 1620 nM | 
6 | CCCCCOC(=O)C[C@H](NP1(=O)CO[C@@H](Cn2ccc(N)nc2=O)CO1)C(=O)OCCCCC (stereo partly drawn) [Example 10, Diamyl {(5S)-5-[(4-amino-2-oxopyrimidin-1(2H)-yl)methyl]-2-oxido-1,4,2-dioxaphosphinan-2-yl}-L-aspartate] | 19.4 | 19.4 | 5.5 nM | 6.3 nM |  |  |  |  |  |  |  | 33100 nM | 12 nM | 19 nM | 
7 | CCCCCOC(=O)C[C@H](NP1(=O)CO[C@H](Cn2ccc(N)nc2=O)CO1)C(=O)OCCCCC (stereo partly drawn) [Example 11, Diamyl {(5R)-5-[(4-amino-2-oxopyrimidin-1(2H)-yl)methyl]-2-oxido-1,4,2-dioxaphosphinan-2-yl}-L-aspartate] | >19 | >19 | 810 nM | 1240 nM |  |  |  |  |  |  |  | > 194000 nM | 2680 nM | 3530 nM | > 194000 nM
8 | CCCCCOC(=O)[C@H](Cc1ccccc1)NP1(=O)CO[C@@H](Cn2cnc3c(N)ncnc32)CO1 (stereo partly drawn) [Example 12, Amyl ((5S)-5-((6-amino-9H-purin-9-yl)methyl)-2-oxido-1,4,2-dioxaphosphinan-2-yl)-L-phenylalaninate] | 9.3 | 9.3 | 0.52 nM | 3.2 nM |  |  | 30600 nM |  |  |  |  |  | 31 nM | 17 nM | 
9 | CCCCCOC(=O)[C@H](CCSC)NP1(=O)CO[C@@H](Cn2cnc3c(N)ncnc32)CO1 (stereo partly drawn) [Example 13, Amyl ((5S)-5-((6-amino-9H-purin-9-yl)methyl)-2-oxido-1,4,2-dioxaphosphinan-2-yl)-L-methioninate] | 4.11 | 4.11 | 2.6 nM | 4 nM |  |  | 39600 nM |  |  |  |  |  | 32 nM | 29 nM | 
10 | CCCCCOC(=O)[C@H](C)NP1(=O)CO[C@@H](Cn2cnc3c(N)ncnc32)CO1 (stereo partly drawn) [Example 14, Amyl ((5S)-5-((6-amino-9H-purin-9-yl)methyl)-2-oxido-1,4,2-dioxaphosphinan-2-yl)-L-alaninate] | 23.5 | 23.5 | 2 nM | 4.3 nM |  |  | 3400 nM |  |  |  |  |  | 64 nM | 65 nM | 
11 | CCCCCOC(=O)CC[C@H](NP1(=O)CO[C@@H](Cn2cnc3c(N)ncnc32)CO1)C(=O)OCCCCC (stereo partly drawn) [Example 15, Diamyl {(5S)-5-[(6-amino-9H-purin-9-yl)methyl]-2-oxido-1,4,2-dioxaphosphinan-2-yl}-L-glutamate] | 13.2 | 13.2 | 0.58 nM | 0.95 nM |  |  | 520 nM |  |  |  |  |  | 14 nM | 7.6 nM | 
12 | CCCCCOC(=O)[C@@H](NP1(=O)CO[C@@H](Cn2cnc3c(N)ncnc32)CO1)C(C)C (stereo partly drawn) [Example 16, Amyl {(5S)-5-[(6-amino-9H-purin-9-yl)methyl]-2-oxido-1,4,2-dioxaphosphinan-2-yl}-L-valinate] | 4.40 | 4.40 | 0.57 nM | 1.5 nM |  |  | 7760 nM |  |  |  |  |  | 5.9 nM | 4.8 nM | 
13 | CCCCCOC(=O)[C@H](CC(C)C)NP1(=O)CO[C@@H](Cn2cnc3c(N)ncnc32)CO1 (stereo partly drawn) [Example 17, Amyl {(5S)-5-[(6-amino-9H-purin-9-yl)methyl]-2-oxido-1,4,2-dioxaphosphinan-2-yl}-L-leucinate] | 4.27 | 4.27 | 0.47 nM | 0.59 nM | 77.5 nM | ≥0.8 | 1620 nM |  |  |  | 43.5 nM |  | 5.7 nM | 3.8 nM | 
14 | CCCCCOC(=O)[C@@H](NP1(=O)CO[C@@H](Cn2cnc3c(N)ncnc32)CO1)[C@@H](C)CC (stereo partly drawn) [Example 18, Amyl {(5S)-5-[(6-amino-9H-purin-9-yl)methyl]-2-oxido-1,4,2-dioxaphosphinan-2-yl}-L-isoleucinate] | 9.96 | 9.96 | 0.45 nM | 0.54 nM |  |  | 12000 nM |  |  |  |  |  | 7 nM | 6.5 nM | 
15 | CCCCCOC(=O)[C@@H](NP(=O)(CO[C@H](CO)Cn1cnc2c(N)ncnc21)N[C@H](C(=O)OCCCCC)C(C)C)C(C)C [Example 19, diamyl 2,2′-((((((S)-1-(6-amino-9H-purin-9-yl)-3-hydroxypropan-2-yl)oxy)methyl)phosphoryl)bis(azanediyl))(2S,2′S)-bis(3-methylbutanoate)] | 8.57 | 8.57 | 1.5 nM | 0.95 nM | 42.5 nM | ≥20 | 600 nM |  |  |  | 13.5 nM |  | 100 nM | 72 nM | 
16 | Nc1nc(O)c2ncn(COC(CO)CO)c2n1 [Ganciclovir, reference compound] | >39.2 | >39.2 |  |  |  |  |  |  | 7400 nM |  |  |  |  |  | 
17 | Nc1nc2c(ncn2CCC(CO)CO)c(=O)[nH]1 [Penciclovir, reference compound] | >79.0 |  |  |  |  |  |  | > 395000 nM |  |  |  |  |  |  | 
